Experimental data reported in US20250276977A1, “TYK2 INHIBITORS AND USES THEREOF” (Alumis Inc., priority 2019, published 2025).
Where two headings read alike, the source gives them in different places.

Legend:
[1] = cn_pd bond, 1,4-dioxane
INFα induced pSTAT5 = INFα induced pSTAT5 in human PBMC; format: cell-based; conditions: Homo sapiens, PBMC, INFα 5000 units/ml, read-out: p-STAT5 IC50
Method: Fresh Human PBMCs were resuspended in RPMI 1640 medium with 10% FBS. Cells were seeded in a round bottom 96-well plate at the concentration of 200,000 cells/well. A 10-point dilution series of test compound (top dose 10 uM, 1:5 dilution) was added to the well using the liquid dispenser (Tecan D300e) and incubated for 1 hour at 37 C. Then human INFα recombinant protein (R&D Systems) was added to the well at the final concentration of 5000 units/ml and incubated for 15 minutes at 37 C. Cell lysates were prepared and analyzed by Phospho STAT3 (Tyr705) cellular kit (Cisbio) or Phospho STAT5 (Tyr693) Kit (Meso Scale Discovery) following manufacturer's protocol.
For calculation of the inhibition rate, the relative pSTAT signal of each well=pSTAT signal of each well−the average pSTAT signal of baseline.
The inhibition %=(the average pSTAT signal of INFα treatment wells—the relative of pSTAT signal in each compound containing well)/the average pSTAT signal of INFα treatment wells * 100%
The curve was plotted as the inhibition % (y-axis) vs. compounds concentration (x-axis) and was fitted with log(inhibitor) vs. normalized response—Variable slope by GraphPad Prism7.0.

[2] = Pharmacokinetic studies in Sprague Dawley rats; format: in vivo; conditions: rat, plasma, male Sprague Dawley rats
Method: The pharmacokinetics of test compounds were evaluated in male Sprague Dawley rats when administered via oral gavage and IV injection. The test compound was suspended in 0.5% methylcellulose for oral gavage and dissolved in 5% DMSO/5% Solutol/90% saline for IV injection. The animals were fasted overnight before administration. Plasma samples were collected predose and at 0.5, 1, 3, 6, 9, 12, and 24 hours postdose. The samples were analyzed by LC/MS/MS and the concentration of test compound at each timepoint was determined by linear regression. Pharmacokinetic parameters were calculated from the plasma concentrations using Pheonix WinNonlin.

COc1nnc2cc1Nc1cc(N(C)C(=O)OC(C)(C)C)n3ncc(c3n1)C(=O)N[C@H](C)COC2
ring closure, isolated yield ([1]; from COc1nnc(COC[C@@H](C)NC(=O)c2cnn3c(N(C)C(=O)OC(C)(C)C)cc(Cl)nc23)cc1N, 14-membered ring, tBuXPhos-Pd-G3/Cs2CO3, […], 80.0 °C, 2.0 h): 21.7%

COc1cc(F)c2cc1Nc1cc(N(C)C(=O)OC(C)(C)C)c3ncc(n3n1)C(=O)NC(C)COC2 (stereo not shown)
ring closure, isolated yield ([1]; from COc1cc(F)c(COCC(C)NC(=O)c2cnc3c(N(C)C(=O)OC(C)(C)C)cc(Cl)nn23)cc1N, 14-membered ring, tBuXPhos-Pd-G3/Cs2CO3, 4.1 mM, 85.0 °C, 2.0 h): 53.6%

COc1cc2cnn3c2cc1Nc1cc(N(C)C(=O)OC(C)(C)C)c2ncc(n2n1)C(=O)NC(C)CC3 (stereo not shown)
ring closure, isolated yield ([1]; from COc1cc2cnn(CCC(C)NC(=O)c3cnc4c(N(C)C(=O)OC(C)(C)C)cc(Cl)nn34)c2cc1N, 14-membered ring, tBuXPhos-Pd-G3/Cs2CO3, 25.0 mM, 80.0 °C, 3.0 h): 59%

C[C@@H]1COCc2cc(c3cn(C)nc3c2)Nc2cc(N(C)C(=O)OC(C)(C)C)n3ncc(c3n2)C(=O)N1
ring closure, isolated yield ([1]; from C[C@H](COCc1cc(N)c2cn(C)nc2c1)NC(=O)c1cnn2c(N(C)C(=O)OC(C)(C)C)cc(Cl)nc12, 14-membered ring, Pd2(dba)3/XPhos/Cs2CO3, 18.0 mM, 95.0 °C, 3.5 h): 82.2%

COc1cc(F)c2cc1Nc1cc(N(C)C(=O)OC(C)(C)C)n3ncc(c3n1)C(=O)N[C@H](C)COC2
ring closure, isolated yield ([1]; from COc1cc(F)c(COC[C@@H](C)NC(=O)c2cnn3c(N(C)C(=O)OC(C)(C)C)cc(Cl)nc23)cc1N, 14-membered ring, Pd2(dba)3/XPhos/Cs2CO3, 23.3 mM, 90.0 °C, 1.0 h): 74%

C[C@@H]1COCc2cc(c(=O)n(C)n2)Nc2cc(N(C)C(=O)OC(C)(C)C)c3ncc(n3n2)C(=O)N1
ring closure, isolated yield ([1]; from C[C@H](COCc1cc(N)c(=O)n(C)n1)NC(=O)c1cnc2c(N(C)C(=O)OC(C)(C)C)cc(Cl)nn12, 14-membered ring, tBuXPhos-Pd-G3/Cs2CO3, […], 80.0 °C, 2.0 h): 78.2%

CNC(=O)Oc1cc(Cl)nn2c(C(=O)NC3CC(OCc4ccc(OC)c([N+](=O)[O-])c4)C3)cnc12 (stereo not shown)
ring closure, isolated yield ([1]; the molecule shown is the open-chain precursor, 15-membered ring, tBuXPhos-Pd-G3/Cs2CO3, 50.0 mM, 80.0 °C): 20.2%

COc1c2cc(c(F)c1F)COC[C@@H](C)NC(=O)c1cnc3c(NC(=O)OC(C)(C)C)cc(nn13)N2
ring closure, isolated yield ([1]; from COc1c(N)cc(COC[C@@H](C)NC(=O)c2cnc3c(NC(=O)OC(C)(C)C)cc(Cl)nn23)c(F)c1F, 14-membered ring, tBuXPhos-Pd-G3/Cs2CO3, 3.5 mM, 80.0 °C, 2.0 h): 47%

C[C@@H]1COCc2ccc(F)c(c2)Nc2cc(N(C)C(=O)OC(C)(C)C)n3ncc(c3n2)C(=O)N1
ring closure, isolated yield ([1]; from C[C@H](COCc1ccc(F)c(N)c1)NC(=O)c1cnn2c(N(C)C(=O)OC(C)(C)C)cc(Cl)nc12, 14-membered ring, tBuXPhos-Pd-G3/Cs2CO3, 20.0 mM, 85.0 °C, 2.0 h): 30%

COc1c(F)cc2cc1Nc1cc(NC(=O)OC(C)(C)C)c3ncc(n3n1)C(=O)N[C@H](C)COC2
ring closure, isolated yield ([1]; from COc1c(N)cc(COC[C@@H](C)NC(=O)c2cnc3c(NC(=O)OC(C)(C)C)cc(Cl)nn23)cc1F, 14-membered ring, tBuXPhos-Pd-G3/Cs2CO3, 8.4 mM, 80.0 °C, 2.0 h): 52.5%

COc1ccc2cc1Nc1cc(N(C)C(=O)OC(C)(C)C)c3ncc(n3n1)C(=O)NC1(CC1)COC2
ring closure, isolated yield ([1]; from COc1ccc(COCC2(NC(=O)c3cnc4c(N(C)C(=O)OC(C)(C)C)cc(Cl)nn34)CC2)cc1N, 14-membered ring, tBuXPhos-Pd-G3/Cs2CO3, 15.0 mM, 85.0 °C, 2.0 h): 58.7%

COc1ccc2cc1Nc1cc(N(C)C(=O)OC(C)(C)C)c3ncc(n3n1)C(=O)N[C@H](C)CN(C)C2
ring closure, isolated yield ([1]; from COc1ccc(CN(C)C[C@@H](C)NC(=O)c2cnc3c(N(C)C(=O)OC(C)(C)C)cc(Cl)nn23)cc1N, 14-membered ring, Pd2(dba)3/XPhos/Cs2CO3, 56.0 mM, 95.0 °C, 3.5 h): 10.8%

CNc1cc2nn3c(cnc13)C(=O)N[C@H](C)COCc1cc(c(=O)n(C)c1)N2 [Example 15]
IC50 (INFα induced pSTAT5): 5.1 nM
AUC ([2]; iv, I.V. (1 mg/kg)): 472 ± 93 ng·h/mL
C0 ([2]; iv, I.V. (1 mg/kg)): 539 ± 54 ng/mL
clearance ([2]; iv, I.V. (1 mg/kg)): 36.1 ± 8 mL/min/kg
half-life ([2]; iv, I.V. (1 mg/kg)): 61.2 ± 3.54 min
Vd ([2]; iv, I.V. (1 mg/kg), read-out: Vdss): 2.17 ± 0.08 L/kg
AUC ([2]; Oral (5 mg/kg)): 147 ± 40 ng·h/mL
Cmax ([2]; Oral (5 mg/kg)): 22.2 ± 5 ng/mL
Tmax ([2]; Oral (5 mg/kg)): 2.67 ± 1.2 h
bioavailability ([2]; Oral (5 mg/kg)): 6.23 ± 1.7%
half-life ([2]; Oral (5 mg/kg)): 247 ± 114 min

CNc1cc2nc3c(cnn13)C(=O)N[C@H](C)COCc1cc(c(OC)nn1)N2 [Example 59, (R,1^3E,1^4E)-3^6-methoxy-7-methyl-1^7-(methylamino)-5-oxa-2,8-diaza-1(5,3)-pyrazolo[1,5-a]pyrimidina-3(5,3)-pyridazinacyclononaphan-9-one]
IC50 (INFα induced pSTAT5): 39.1 nM

C[C@@H]1COCc2cc(c(=O)n(C)n2)Nc2cc(N(C)C(=O)OC(C)(C)C)n3ncc(c3n2)C(=O)N1
ring closure, isolated yield ([1]; from C[C@H](COCc1cc(N)c(=O)n(C)n1)NC(=O)c1cnn2c(N(C)C(=O)OC(C)(C)C)cc(Cl)nc12, 14-membered ring, tBuXPhos-Pd-G3/Cs2CO3, 19.0 mM, 85.0 °C, 2.0 h): 70%

CNc1cc2nc3c(cnn13)C(=O)N[C@H](C)COCc1ccc(C#N)c(c1)N2 [Example 40]
IC50 (INFα induced pSTAT5): 2.4 nM

CNc1cc2nc3c(cnn13)C(=O)N[C@H](C)COCc1cc(c3oc(C)nc3c1)N2 [Example 34]
IC50 (INFα induced pSTAT5): 2.5 nM

Cc1cc2nc(n1)COC[C@@H](C)NC(=O)c1cnc3c(N(C)C(=O)OC(C)(C)C)cc(nn13)N2
ring closure, isolated yield ([1]; from Cc1cc(N)nc(COC[C@@H](C)NC(=O)c2cnc3c(N(C)C(=O)OC(C)(C)C)cc(Cl)nn23)n1, 14-membered ring, Pd2(dba)3/XPhos/Cs2CO3, 40.0 mM, 80.0 °C, 1.0 h): 53%

COc1c(F)cc2cc1Nc1cc(N(C)C(=O)OC(C)(C)C)n3ncc(c3n1)C(=O)N[C@H](C)COC2
ring closure, isolated yield ([1]; from COc1c(N)cc(COC[C@@H](C)NC(=O)c2cnn3c(N(C)C(=O)OC(C)(C)C)cc(Cl)nc23)cc1F, 14-membered ring, tBuXPhos-Pd-G3/Cs2CO3, 8.4 mM, 80.0 °C, 2.0 h): 52.5%

CNc1cc2nn3c(cnc13)C(=O)NC1(CC1)COCc1ccc(OC)c(c1)N2 [Example 20, (E)-6′-methoxy-8′-(methylamino)spiro[cyclopropane-1,7′-5-oxa-2,8-diaza-1(6,3)-imidazo[1,2-b]pyridazina-3(1,3)-benzenacyclononaphan]-9′-one]
IC50 (INFα induced pSTAT5): 15.3 nM

CNc1cc2nc3c(cnn13)C(=O)N[C@@H](C)C(C)OCc1ccc(OC)c(c1)N2 (stereo partly shown) [Example 30]
IC50 (INFα induced pSTAT5): > 200 nM

CNc1cc2nc3c(cnn13)C(=O)N[C@H](C)COCc1ccc(F)c(c1)N2 [Example 56, (R, 1^3E, 1^4E)-3^6-fluoro-7-methyl-1^7-(methylamino)-5-oxa-2,8-diaza-1(5,3)-pyrazolo[1,5-a]pyrimidina-3(1,3)-benzenacyclononaphan-9-one]
IC50 (INFα induced pSTAT5): 28.8 nM

COc1cc(F)c2cc1Nc1cc(NC(=O)OC(C)(C)C)c3ncc(n3n1)C(=O)N[C@H](C)COC2
ring closure, isolated yield ([1]; from COc1cc(F)c(COC[C@@H](C)NC(=O)c2cnc3c(NC(=O)OC(C)(C)C)cc(Cl)nn23)cc1N, 14-membered ring, tBuXPhos-Pd-G3/Cs2CO3, 10.25 mM, 80.0 °C, 2.0 h): 56.1%

CNc1cc2nc3c(cnn13)C(=O)N[C@H](C)COc1ccc(OC)c(c1)N2 [Example 38]
IC50 (INFα induced pSTAT5): > 200 nM

COc1ccc2nc1Nc1cc(N(C)C(=O)OC(C)(C)C)n3ncc(c3n1)C(=O)N[C@H](C)COC2
ring closure, isolated yield ([1]; from COc1ccc(COC[C@@H](C)NC(=O)c2cnn3c(N(C)C(=O)OC(C)(C)C)cc(Cl)nc23)nc1N, 14-membered ring, Pd2(dba)3/XPhos/Cs2CO3, 6.3 mM, 95.0 °C, 3.5 h): 84.2%

COc1ccc2nc1Nc1cc(N)n3ncc(c3n1)C(=O)N[C@H](C)COC2 [Example 55, (R, 1^3E, 1^4E)-33-methoxy-7-methyl-1^7-(methylamino)-5-oxa-2,8-diaza-1(5,3)-pyrazolo[1,5-a]pyrimidina-3(2,6)-pyridinacyclononaphan-9-one]
IC50 (INFα induced pSTAT5): > 200 nM

C[C@@H]1COCc2cc(c3nccn3c2)Nc2cc(N(C)C(=O)OC(C)(C)C)n3ncc(c3n2)C(=O)N1
ring closure, isolated yield ([1]; from C[C@H](COCc1cc(N)c2nccn2c1)NC(=O)c1cnn2c(N(C)C(=O)OC(C)(C)C)cc(Cl)nc12, 14-membered ring, tBuXPhos-Pd-G3/Cs2CO3, 11.5 mM, 80.0 °C, 2.0 h): 72%
